# Like-named read-outs stand apart in the source and are kept apart here.
# How the values were obtained:
# Format in all cases: in vivo
# Phakopsora pachyrhizi [1] = assay: Test G: Compound 41 or 63 alone and in mixtures on soybean seedlings, Asian soybean rust, Colby synergy; settings: for pest or weed control at 0.346 ppm: Compound 41 0.346 ppm alone; for pest or weed control at 0.764 ppm: Compound 41 0.764 ppm alone
# From the text: The general protocol for preparing test compositions for TEST G was as follows: Compound 41, Compound 63, N-(2,2,2-trifluoroethyl)-2-[[4-[5-(trifluoromethyl)-1,2,4-oxadiazol-3-yl]phenyl]methyl]-4-oxazolecarboxamide (b54.11a), ethyl 1-[[4-[[(1Z)-2-ethoxy-3,3,3-trifluoro-1-propen-1-yl]oxy]phenyl]methyl]-1H-pyrazole-4-carboxylate (b54.11c), ethyl 1-[[4-[[2-(trifluoromethyl)-1,3-dioxolan-2-yl]methoxy]phenyl]methyl]-1H-pyrazole-4-carboxylate (b54.11d), azoxystrobin, benzovindiflupyr, bixafen, chlorothalonil, cyproconazole, epoxiconazole, fenpropidin, fenpropimorph, fluindapyr, flutriafol, fluxapyroxad, inpyrfluxam, picoxystrobin, prothioconazole, pydiflumetofen, tebuconazole and trifloxystrobin were obtained as unformulated, technical-grade materials. Copper hydroxide and mancozeb was obtained as a formulated product marketed under the trademarks KOCIDE 3000 and MANZATE, respectively. Unformulated materials were first dissolved in acetone and then suspended at the desired concentration (in ppm) in acetone and purified water (50/50 mix by volume) containing 250 ppm of the surfactant Trem® 014 (polyhydric alcohol esters). Formulated materials were dispersed in sufficient water to give the desired concentration, and neither organic solvent nor surfactant was added to the suspension. The resulting test mixtures were then used in TEST G. The tests were run on four individual plants and the results reported as the mean average of the four plants.
# The presence of a synergistic effect between two active ingredients was established with the aid of the Colby equation (see Colby, S. R. “Calculating Synergistic and Antagonistic Responses of Herbicide Combinations”, Weeds, (1967), 15, 20-22):
# Using the method of Colby, the presence of a synergistic interaction between two active ingredients is established by first calculating the predicted activity, p, of the mixture based on activities of the two components applied alone. If p is lower than the experimentally established effect, synergism has occurred. In the equation above, A is the fungicidal activity in percentage control of one component applied alone at rate x. The B term is the fungicidal activity in percentage control of the second component applied at rate y. The equation estimates p, the expected fungicidal activity of the mixture of A at rate x with B at rate y if their effects are strictly additive and no interaction has occurred.
# (§1) The test mixture was sprayed to the point of run-off on soybean seedlings. The following day the seedlings were inoculated with a spore suspension of Phakopsora pachyrhizi (the causal agent of Asian soybean rust) and incubated in a saturated atmosphere at 22° C. for 24 h and then moved to a growth chamber at 22° C. for 8 days, after which time visual disease ratings were made.
# Results for TEST G are given below in Tables B-1 through J-1 for Compound 41, and Tables B-2 through J-2 for Compound 63. Each table corresponds to a set of evaluations performed together at the same time. In each table, a rating of 100 indicates 100% disease control and a rating of 0 indicates no disease control (relative to the controls). Columns labeled “Obsd” indicate the average of results observed from test run on four individual plants. Columns labeled “Exp” indicate the expected value for each treatment mixture using the Colby equation.
# Phakopsora pachyrhizi [2] = assay: Test D: preventive spray on soybean seedlings, Asian soybean rust; settings: Rate 10 ppm
# From the text: (§2) General protocol for preparing test suspensions for Tests A-F: the test compounds were first dissolved in acetone in an amount equal to 3% of the final volume and then suspended at the desired concentration (in ppm) in acetone and purified water (50/50 mix by volume) containing 250 ppm of the surfactant PEG400 (polyhydric alcohol esters). The resulting test suspensions were then used in Tests A-F.
# as §1, with “solution” for “mixture”
# (§3) A rating of 100 indicates 100% disease control and a rating of 0 indicates no disease control (relative to the controls). A dash (-) indicates the compound was not tested.
# [3] = system: Puccinia recondita f. sp. tritici; assay: Test B: preventive spray on wheat seedlings, wheat leaf rust; settings: Rate 10 ppm
# From the text: as §2
# The test solution was sprayed to the point of run-off on wheat seedlings. The following day the seedlings were inoculated with a spore suspension of Puccinia recondita f. sp. tritici (the causal agent of wheat leaf rust) and incubated in a saturated atmosphere at 20° C. for 24 h, and then moved to a growth chamber at 20° C. for 7 days, after which time disease ratings were made.
# as §3
# [4] = Phakopsora pachyrhizi, Table B-1, read-out: Test G Obsd
# [5] = Phakopsora pachyrhizi, Table C-1, read-out: Test G Obsd
structure (smiles),measurement,setting,value
"Cn1cc(C(=O)Nc2cccc3c2[C@@H]2CC[C@H]3C2=C(Cl)Cl)c(C(F)F)n1 (racemic) [Benzovindiflupyr, benzovindiflupyr]",Test G Obsd,Phakopsora pachyrhizi [1]; benzovindiflupyr alone 0.606 ppm,67%
same,Test G Obsd,Phakopsora pachyrhizi [1]; benzovindiflupyr alone 0.980 ppm,67%
"Fc1ccc([C@]2(Cn3cncn3)O[C@H]2c2ccccc2Cl)cc1 (racemic) [Epoxiconazole, epoxiconazole]",pest or weed control at 46.795 ppm,"Phakopsora pachyrhizi [1]; Phakopsora pachyrhizi, epoxiconazole alone 46.795 ppm, read-out: Test G Obsd",23%
same,pest or weed control at 89.631 ppm,"Phakopsora pachyrhizi [1]; Phakopsora pachyrhizi, epoxiconazole alone 89.631 ppm, read-out: Test G Obsd",70%
O=C(NCC(F)(F)F)c1coc(Cc2ccc(-c3noc(C(F)(F)F)n3)cc2)n1 [(b54.11a)],Test G Obsd,"Phakopsora pachyrhizi [1]; Table B-1, (b54.11a) 0.471 ppm alone",59%
same,Test G Obsd,"Phakopsora pachyrhizi [1]; Table B-1, (b54.11a) 0.764 ppm alone",75%
"CO/C=C(/C(=O)OC)c1ccccc1Oc1cc(Oc2ccccc2C#N)ncn1 [Azoxystrobin, azoxystrobin]",Test G Obsd,Phakopsora pachyrhizi [1]; azoxystrobin alone 95.873 ppm,70%
same,Test G Obsd,Phakopsora pachyrhizi [1]; azoxystrobin alone 169.226 ppm,90%
"Cn1cc(C(=O)Nc2ccc(F)cc2-c2ccc(Cl)c(Cl)c2)c(C(F)F)n1 [Bixafen, bixafen]",Test G Obsd,"Phakopsora pachyrhizi [1]; Table C-1, bixafen 11.327 ppm alone",54%
same,Test G Obsd,"Phakopsora pachyrhizi [1]; Table C-1, bixafen 19.525 ppm alone",55%
same,Test G Obsd,"Phakopsora pachyrhizi [1]; Table C-2, bixafen 11.327 ppm alone",54%
same,Test G Obsd,"Phakopsora pachyrhizi [1]; Table C-2, bixafen 19.525 ppm alone",55%
"N#Cc1c(Cl)c(Cl)c(Cl)c(C#N)c1Cl [Chlorothalonil, chlorothalonil]",pest or weed control at 138.129 ppm,"Phakopsora pachyrhizi [1]; Phakopsora pachyrhizi, chlorothalonil alone 138.129 ppm, read-out: Test G Obsd",59%
same,pest or weed control at 222.081 ppm,"Phakopsora pachyrhizi [1]; Phakopsora pachyrhizi, chlorothalonil alone 222.081 ppm, read-out: Test G Obsd",85%
"COC(=O)NCc1cc(-c2ccn(-c3c(F)cc(C4CC4)cc3F)n2)ccc1C [Compound 41, methyl N-[[5-[1-(4-cyclopropyl-2,6-difluorophenyl)-1H-pyrazol-3-yl]-2-methylphenyl]methyl]carbamate]",pest or weed control at 0.346 ppm,Phakopsora pachyrhizi [1]; [4],29%
same,pest or weed control at 0.764 ppm,Phakopsora pachyrhizi [1]; [4],62%
same,pest or weed control at 0.346 ppm,Phakopsora pachyrhizi [1]; [5],19%
same,pest or weed control at 0.764 ppm,Phakopsora pachyrhizi [1]; [5],45%
"CC(C1CC1)C(O)(Cn1cncn1)c1ccc(Cl)cc1 (centres unmarked) [Cyproconazole, cyproconazole]",pest or weed control at 37.333 ppm,"Phakopsora pachyrhizi [1]; Phakopsora pachyrhizi, cyproconazole alone 37.333 ppm, read-out: Test G Obsd",44%
same,pest or weed control at 64.883 ppm,"Phakopsora pachyrhizi [1]; Phakopsora pachyrhizi, cyproconazole alone 64.883 ppm, read-out: Test G Obsd",68%
"CC(Cc1ccc(C(C)(C)C)cc1)CN1CCCCC1 (centres unmarked) [Fenpropidin, fenpropidin]",pest or weed control at 78.393 ppm,"Phakopsora pachyrhizi [1]; Phakopsora pachyrhizi, fenpropidin alone 78.393 ppm, read-out: Test G Obsd",45%
same,pest or weed control at 161.74 ppm,"Phakopsora pachyrhizi [1]; Phakopsora pachyrhizi, fenpropidin alone 161.740 ppm, read-out: Test G Obsd",68%
"CC(Cc1ccc(C(C)(C)C)cc1)CN1C[C@@H](C)O[C@@H](C)C1 (some centres unmarked) [Fenpropimorph, fenpropimorph]",pest or weed control at 242.823 ppm,"Phakopsora pachyrhizi [1]; Phakopsora pachyrhizi, fenpropimorph alone 242.823 ppm, read-out: Test G Obsd",33%
same,pest or weed control at 458.587 ppm,"Phakopsora pachyrhizi [1]; Phakopsora pachyrhizi, fenpropimorph alone 458.587 ppm, read-out: Test G Obsd",44%
"CC1CC(C)(C)c2c(F)ccc(NC(=O)c3cn(C)nc3C(F)F)c21 (centres unmarked) [Fluindapyr, fluindapyr]",Test G Obsd,"Phakopsora pachyrhizi [1]; Table C-1, fluindapyr 8.820 ppm alone",61%
same,Test G Obsd,"Phakopsora pachyrhizi [1]; Table C-1, fluindapyr 15.230 ppm alone",79%
same,Test G Obsd,"Phakopsora pachyrhizi [1]; Table C-2, fluindapyr 8.820 ppm alone",61%
same,Test G Obsd,"Phakopsora pachyrhizi [1]; Table C-2, fluindapyr 15.230 ppm alone",79%
"OC(Cn1cncn1)(c1ccc(F)cc1)c1ccccc1F (centres unmarked) [Flutriafol, flutriafol]",pest or weed control at 544.265 ppm,"Phakopsora pachyrhizi [1]; Phakopsora pachyrhizi, flutriafol alone 544.265 ppm, read-out: Test G Obsd",13%
same,pest or weed control at 1124.02 ppm,"Phakopsora pachyrhizi [1]; Phakopsora pachyrhizi, flutriafol alone 1124.021 ppm, read-out: Test G Obsd",52%
"Cn1cc(C(=O)Nc2ccccc2-c2cc(F)c(F)c(F)c2)c(C(F)F)n1 [Fluxapyroxad, fluxapyroxad]",Test G Obsd,"Phakopsora pachyrhizi [1]; Table C-1, fluxapyroxad 2.757 ppm alone",19%
same,Test G Obsd,"Phakopsora pachyrhizi [1]; Table C-1, fluxapyroxad 4.748 ppm alone",52%
same,Test G Obsd,"Phakopsora pachyrhizi [1]; Table C-2, fluxapyroxad 2.757 ppm alone",19%
same,Test G Obsd,"Phakopsora pachyrhizi [1]; Table C-2, fluxapyroxad 4.748 ppm alone",52%
"C[C@@H]1CC(C)(C)c2cccc(NC(=O)c3cn(C)nc3C(F)F)c21 [Inpyrfluxam, inpyrfluxam]",Test G Obsd,Phakopsora pachyrhizi [1]; inpyrfluxam alone 0.448 ppm,56%
same,Test G Obsd,Phakopsora pachyrhizi [1]; inpyrfluxam alone 1.059 ppm,79%
"CO/C=C(/C(=O)OC)c1ccccc1COc1cccc(C(F)(F)F)n1 [Picoxystrobin, picoxystrobin]",Test G Obsd,Phakopsora pachyrhizi [1]; picoxystrobin alone 20.596 ppm,63%
same,Test G Obsd,Phakopsora pachyrhizi [1]; picoxystrobin alone 33.856 ppm,79%
same,Test G Obsd,Phakopsora pachyrhizi [1]; picoxystrobin alone 33.865 ppm,79%
"OC(Cc1ccccc1Cl)(Cn1nc[nH]c1=S)C1(Cl)CC1 (centres unmarked) [Prothioconazole, prothioconazole]",pest or weed control at 10.165 ppm,"Phakopsora pachyrhizi [1]; Phakopsora pachyrhizi, prothioconazole alone 10.165 ppm, read-out: Test G Obsd",7%
same,pest or weed control at 16.339 ppm,"Phakopsora pachyrhizi [1]; Phakopsora pachyrhizi, prothioconazole alone 16.339 ppm, read-out: Test G Obsd",65%
"CON(C(=O)c1cn(C)nc1C(F)F)C(C)Cc1c(Cl)cc(Cl)cc1Cl (centres unmarked) [Pydiflumetofen, pydiflumetofen]",Test G Obsd,Phakopsora pachyrhizi [1]; pydiflumetofen alone 41.364 ppm,49%
same,Test G Obsd,Phakopsora pachyrhizi [1]; pydiflumetofen alone 70.950 ppm,0%
same,Test G Obsd,Phakopsora pachyrhizi [1]; pydiflumetofen alone 128.793 ppm,36%
same,Test G Obsd,Phakopsora pachyrhizi [1]; pydiflumetofen alone 135.850 ppm,73%
COC(=O)NCc1cc(-c2cn(-c3c(Br)cc(OC)cc3[N+](=O)[O-])nn2)ccc1C [compound 129],Test D disease control rating,Phakopsora pachyrhizi [2],0%
same,Test B disease control rating,[3],0%
COC(=O)NCc1cc(-c2cn(-c3c(F)cc(OC)cc3F)nn2)ccc1C [compound 130],Test D disease control rating,Phakopsora pachyrhizi [2],0%
same,Test B disease control rating,[3],68%
COC(=O)NCc1cc(-c2ccn(-c3c(F)cc(C4OCCO4)cc3F)n2)ccc1C [compound 133],Test D disease control rating,Phakopsora pachyrhizi [2],100%
same,Test B disease control rating,[3],99%
COC(=O)NCc1cc(-c2ccn(-c3c(Br)cc(I)cc3Br)n2)ccc1C [compound 136],Test D disease control rating,Phakopsora pachyrhizi [2],59%
same,Test B disease control rating,[3],19%
CCc1cc(F)c(-n2ccc(-c3ccc(C)c(CNC(=O)OC)c3)n2)c(F)c1 [compound 144],Test D disease control rating,Phakopsora pachyrhizi [2],100%
same,Test B disease control rating,[3],100%
CCCc1cc(F)c(-n2ccc(-c3ccc(C)c(CNC(=O)OC)c3)n2)c(F)c1 [compound 145],Test D disease control rating,Phakopsora pachyrhizi [2],100%
same,Test B disease control rating,[3],100%
C=Cc1cc(F)c(-n2ccc(-c3ccc(C)c(CNC(=O)OC)c3)n2)c(F)c1 [compound 146],Test D disease control rating,Phakopsora pachyrhizi [2],100%
same,Test B disease control rating,[3],100%
CC=Cc1cc(F)c(-n2ccc(-c3ccc(C)c(CNC(=O)OC)c3)n2)c(F)c1 [compound 147],Test D disease control rating,Phakopsora pachyrhizi [2],100%
same,Test B disease control rating,[3],99%
COC(=O)NCc1cc(-c2ccn(-c3c(F)cc(N4CCN(C)CC4)cc3F)n2)ccc1C [compound 148],Test D disease control rating,Phakopsora pachyrhizi [2],0%
same,Test B disease control rating,[3],0%
COC(=O)NCc1cc(-c2ccn(-c3c(F)cc(N4CCOCC4)cc3F)n2)ccc1C [compound 149],Test D disease control rating,Phakopsora pachyrhizi [2],99%
same,Test B disease control rating,[3],83%
COC(=O)NCc1cc(-c2ccn(-c3c(F)cc(N4CCCC4)cc3F)n2)ccc1C [compound 150],Test D disease control rating,Phakopsora pachyrhizi [2],0%
same,Test B disease control rating,[3],68%
COC(=O)NCc1cc(-c2ccn(-c3c(F)cc(N4CCCCC4)cc3F)n2)ccc1C [compound 151],Test D disease control rating,Phakopsora pachyrhizi [2],19%
same,Test B disease control rating,[3],68%
COC(=O)NCc1cc(-c2ccn(-c3c(F)cc(N(C)C)cc3F)n2)ccc1C [compound 152],Test D disease control rating,Phakopsora pachyrhizi [2],99%
same,Test B disease control rating,[3],98%
